Data published in patent publication US20040106148A1, “Polypeptides” (priority 2000, published 2004).
Values belong to the compound of their own block, whether it stands above or below them.

Assays:
[1] = system: 6 of the PH domains identified (GST fusions); assay: Phosphoinositide binding of PH domains (protein-lipid overlay or surface plasmon resonance); conditions: data not shown
Method: Protein-Lipid overlay. To assess the phosphoinositide binding properties of each PH domain, a protein-lipid overlay assay was performed using the GST fusion proteins as described previously. Briefly, 1 μl of lipid solution containing 1-100 pmol of phospholipids dissolved in a mixture of choroform:methanol:water (1:2:0.8) was spotted onto Hybond-C extra membrane and allowed to dry at room temperature for 1 h. The membrane was blocked in 3% (by mass) fatty acid-free BSA in TBST (50 mM Tris/HCl pH 7.5, 150 mM NaCl and 0.1% Tween-20 (by vol) for lh. The membrane was then incubated overnight at 4° C. with gentle agitation in the same solution containing 0.2 μg/ml of the indicated GST fusion protein. The membranes were washed 6 times over 30 min in TBST and then incubated for 1 h with 1/1000 dilution of anti-GST monoclonal antibody (Sigma). The membranes were washed as before, then incubated for 1 h with 1/5000 dilution of anti-mouse-HRP conjugate (Pierce). Finally, the membranes were washed 12 times over 1 h in TBST and the GST-fusion protein bound to the membrane by virtue of its interaction with phospholipid was detected by enhanced chemiluminescence. […]
We studied the specificity and affinity of interaction of the PH domains for phosphoinositide lipids using either a “protein-lipid overlay” assay (FIG. 2) or the more quantitative surface plasmon resonance based approach (Table 2). […]

[2] = system: PH domains whose lipid binding properties were investigated in FIG. 2 (GST fusions); assay: Protein-lipid overlay; conditions: data not shown
Method: (§1) FIG. 2. Phosphoinositide binding properties of the novel PH domains. The ability of the indicated GST fusion proteins to bind a variety of phosphoinositides was analysed using a protein-lipid overlay. Serial dilutions of the indicated phosphoinositides (100 pmol, 50 pmol, 25 pmol, 12.5 pmol, 6.3 pmol, 3.1 pmol and 1.6 pmol) were spotted onto a nitrocellulose membranes which were then incubated with the purified GST fusion proteins. The membranes were washed and the GST-fusion proteins bound to the membrane by virtue of their interaction with lipid were detected using a GST antibody. A representative of at least 3 separate experiments carried out is shown.
Protein-Lipid overlay. To assess the phosphoinositide binding properties of each PH domain, a protein-lipid overlay assay was performed using the GST fusion proteins as described previously. Briefly, 1 μl of lipid solution containing 1-100 pmol of phospholipids dissolved in a mixture of choroform:methanol:water (1:2:0.8) was spotted onto Hybond-C extra membrane and allowed to dry at room temperature for 1 h. The membrane was blocked in 3% (by mass) fatty acid-free BSA in TBST (50 mM Tris/HCl pH 7.5, 150 mM NaCl and 0.1% Tween-20 (by vol) for lh. The membrane was then incubated overnight at 4° C. with gentle agitation in the same solution containing 0.2 μg/ml of the indicated GST fusion protein. The membranes were washed 6 times over 30 min in TBST and then incubated for 1 h with 1/1000 dilution of anti-GST monoclonal antibody (Sigma). The membranes were washed as before, then incubated for 1 h with 1/5000 dilution of anti-mouse-HRP conjugate (Pierce). Finally, the membranes were washed 12 times over 1 h in TBST and the GST-fusion protein bound to the membrane by virtue of its interaction with phospholipid was detected by enhanced chemiluminescence.

[3] = molecular target: T1, human PEPP1 PH domain (Ser-Ala-Ser to Arg-Pro-Gln, accession N31123), GST fusion (Homo sapiens, UniProt Q9H4M7); assay: Surface plasmon resonance (BIACore), GST fusion binding to phosphoinositide in supported lipid monolayer; conditions: supported phosphatidylcholine monolayers, 1:1 binding model, NB, no binding detected, read-out: Apparent Kd
T1 construct: DNA probe corresponding to the N-terminal 15 to 169 residues of PEPP1; made in house; host or cells: E. coli BL21 (pGEX4T-1)
T1 sequence (Q9H4M7 15-169): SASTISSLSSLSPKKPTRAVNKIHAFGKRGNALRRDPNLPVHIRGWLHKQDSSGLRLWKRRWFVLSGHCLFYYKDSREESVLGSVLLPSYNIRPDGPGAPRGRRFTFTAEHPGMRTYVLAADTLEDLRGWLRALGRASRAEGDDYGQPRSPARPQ
Description: (§2) Cloning of PH domains and preparation of expression constructs. All the human and mouse EST's were obtained from the I.M.A.G.E. Consortium and sequenced. The plant EST (accession number T04439) encoding a full length clone of AtPH1 was obtained from the Arabidopsis Biological Research. Centre (Ohio University). The sequence of each EST was verified and the full length PH domain of each EST was amplified by PCR using the Hi-fidelity PCR system with primers designed to incorporate a Kozak site, an initiating ATG codon followed by a myc epitope tag and a stop codon after the PH domain. […]
(§3) Expression of GST-PH domains in E.coli. The pGEX4T-1 constructs encoding the PH domains of FAPP1, AtPH1, PEPP1, LL5α, LL5β, evectin-2 and PH30 were transformed into BL21 E.coli cells and a 0.5 L culture was grown at 37° C. in Luria Broth containing 100 μg/ml ampicillin, until the absorbance at 600 nm was 0.6. […]
(§4) Kinetic analyses of the interactions between the GST PH domain fusions and the polyphosphoinositides were made using surface plasmon resonance based procedures as described previously, with the following modifications. […] Data were analysed using the bimolecular interaction model and the global fitting feature of the BIAevaluation 3 software for several sensorgrams at different protein concentrations. […]

[4] = molecular target: human FAPP1 PH domain (residues 1 to 99), GST fusion (Homo sapiens, UniProt Q9HB20); assay: Protein-lipid overlay; assay type: binding; conditions: FIG. 2 and Table 2
Sequence of human FAPP1 PH domain (residues 1 to 99), GST fusion (Q9HB20 1-99): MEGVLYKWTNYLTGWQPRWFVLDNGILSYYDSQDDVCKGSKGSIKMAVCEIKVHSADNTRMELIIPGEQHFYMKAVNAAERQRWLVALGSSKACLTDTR
Method: as §1
(§5) Protein-Lipid overlay. To assess the phosphoinositide binding properties of each PH domain, a protein-lipid overlay assay was performed using the GST fusion proteins as described previously. Briefly, 1 μl of lipid solution containing 1-100 pmol of phospholipids dissolved in a mixture of choroform:methanol:water (1:2:0.8) was spotted onto Hybond-C extra membrane and allowed to dry at room temperature for 1 h. […]

[5] = molecular target: T2, human FAPP1 PH domain (residues 1 to 99, accession W32183), GST fusion (Homo sapiens, UniProt Q9HB20); assay: Surface plasmon resonance (BIACore), GST fusion binding to phosphoinositide in supported lipid monolayer; conditions: supported phosphatidylcholine monolayers, 1:1 binding model, NB, no binding detected, read-out: Apparent Kd
T2 construct: made in house; host or cells: E. coli BL21 (pGEX4T-1)
T2 sequence (Q9HB20 1-99, one chain of several): as the sequence (Q9HB20 1-99) above
Description: as §2, §3, §4

[6] = molecular target: human FAPP2 (accession AF380162), GST fusion (Homo sapiens, UniProt Q96JA3); assay: Protein-lipid overlay; assay type: binding; conditions: FIG. 11
Sequence of human FAPP2 (accession AF380162), GST fusion (Q96JA3 whole entry, the tested form may be a part): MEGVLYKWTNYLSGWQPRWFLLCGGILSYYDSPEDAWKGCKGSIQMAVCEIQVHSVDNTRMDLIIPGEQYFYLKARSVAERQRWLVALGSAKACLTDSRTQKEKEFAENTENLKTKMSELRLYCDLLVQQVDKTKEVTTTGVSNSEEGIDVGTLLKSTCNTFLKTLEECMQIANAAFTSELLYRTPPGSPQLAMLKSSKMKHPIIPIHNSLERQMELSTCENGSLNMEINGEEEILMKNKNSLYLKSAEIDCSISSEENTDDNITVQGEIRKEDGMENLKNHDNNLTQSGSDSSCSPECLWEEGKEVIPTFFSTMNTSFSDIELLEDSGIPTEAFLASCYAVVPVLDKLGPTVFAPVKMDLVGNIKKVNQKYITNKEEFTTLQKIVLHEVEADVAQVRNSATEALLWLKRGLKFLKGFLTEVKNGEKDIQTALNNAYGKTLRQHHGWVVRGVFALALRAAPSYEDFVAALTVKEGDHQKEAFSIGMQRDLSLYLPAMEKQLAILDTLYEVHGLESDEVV
Method: as §1
Methods used are equivalent to those specified in the legend to FIG. 2.
as §5

[7] = system: human phospholipase Cδ1 PH domain (residues 20 to 184), GST fusion; conditions: control; cited from earlier work
[8] = molecular target: human evectin-2 PH domain (residues 1 to 167), GST fusion (Homo sapiens, UniProt Q96CS7); assay: Protein-lipid overlay; assay type: binding; conditions: FIG. 2
Sequence of human evectin-2 PH domain (residues 1 to 167), GST fusion (Q96CS7 1-167): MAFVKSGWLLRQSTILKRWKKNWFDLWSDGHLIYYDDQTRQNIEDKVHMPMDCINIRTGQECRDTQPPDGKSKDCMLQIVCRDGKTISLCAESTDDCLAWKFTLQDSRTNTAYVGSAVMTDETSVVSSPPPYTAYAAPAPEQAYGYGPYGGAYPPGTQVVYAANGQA
Method: as §1, §2

GST-GRP1 = conditions: control; cited from earlier work
[9] = molecular target: T3, mouse TAPP2 C-terminal PH domain (residues 174 to 425), GST fusion (Mus musculus, UniProt Q9ERS5); assay: Protein-lipid overlay; assay type: binding; conditions: protein-lipid overlay (FIG. 2)
T3 construct: made in house; host or cells: human embryonic kidney 293 cells (pEBG-2T)
T3 sequence (Q9ERS5 174-425): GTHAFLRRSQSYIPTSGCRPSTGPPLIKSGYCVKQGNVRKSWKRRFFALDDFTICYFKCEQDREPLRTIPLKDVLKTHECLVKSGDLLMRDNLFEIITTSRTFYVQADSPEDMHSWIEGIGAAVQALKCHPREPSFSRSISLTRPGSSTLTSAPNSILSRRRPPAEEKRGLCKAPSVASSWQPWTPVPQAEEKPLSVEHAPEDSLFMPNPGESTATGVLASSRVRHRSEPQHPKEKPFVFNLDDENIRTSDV
Method: as §1
(§6) FIG. 4. Comparison of the phosphoinositide binding properties of the N-terminal and C-terminal PH domains of TAPP1 and TAPP2. The ability of wild type and mutant forms of full length (FL) and isolated N-terminal (NT) and C-terminal (CT) PH domains of TAPP1 and TAPP2 GST-fusion proteins to interact with phosphoinositides were analysed using a protein-lipid overlay. Serial dilutions of the indicated phosphoinositides (100 pmol, 50 pmol, 25 pmol, 12.5 pmol, 6.3 pmol, 3.1 pmol and 1.6 pmol) were spotted onto a nitrocellulose membrane which was then incubated with the indicated purified GST fusion proteins. The membranes were washed and the GST-fusion proteins bound to the membrane by virtue of their interactions with lipid were detected using a GST antibody. A representative experiment of three is shown. The isolated N-terminal PH domain of human TAPP1 comprises residues 1 to 147, the isolated C-terminal PH domain of human TAPP1 comprises residues 95 to 404, the isolated N-terminal PH domain of mouse TAPP2 comprises residues 1 to 131 and the isolated C-terminal PH of mouse TAPP2 comprises residues 174 to 425.
(§7) Protein-Lipid overlay. To assess the phosphoinositide binding properties of each PH domain, a protein-lipid overlay assay was performed using the GST fusion proteins as described previously. […] The membrane was blocked in 3% (by mass) fatty acid-free BSA in TBST (50 mM Tris/HCl pH 7.5, 150 mM NaCl and 0.1% Tween-20 (by vol) for lh. The membrane was then incubated overnight at 4° C. with gentle agitation in the same solution containing 0.2 μg/ml of the indicated GST fusion protein. The membranes were washed 6 times over 30 min in TBST and then incubated for 1 h with 1/1000 dilution of anti-GST monoclonal antibody (Sigma). The membranes were washed as before, then incubated for 1 h with 1/5000 dilution of anti-mouse-HRP conjugate (Pierce). Finally, the membranes were washed 12 times over 1 h in TBST and the GST-fusion protein bound to the membrane by virtue of its interaction with phospholipid was detected by enhanced chemiluminescence.

[10] = molecular target: human TAPP1 C-terminal PH domain (residues 95 to 404), GST fusion (Homo sapiens, UniProt Q9HB21); assay: Protein-lipid overlay; assay type: binding; conditions: protein-lipid overlay (FIG. 2)
Sequence of human TAPP1 C-terminal PH domain (residues 95 to 404), GST fusion (Q9HB21 95-404): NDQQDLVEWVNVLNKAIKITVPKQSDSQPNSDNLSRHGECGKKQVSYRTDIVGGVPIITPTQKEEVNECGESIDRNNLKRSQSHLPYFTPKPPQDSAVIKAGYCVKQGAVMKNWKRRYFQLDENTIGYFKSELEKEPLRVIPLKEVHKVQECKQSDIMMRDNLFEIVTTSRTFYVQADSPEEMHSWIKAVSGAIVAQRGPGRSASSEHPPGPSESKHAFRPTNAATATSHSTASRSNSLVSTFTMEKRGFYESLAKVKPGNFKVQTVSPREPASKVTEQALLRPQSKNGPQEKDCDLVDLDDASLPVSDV
Method: as §1, §6, §7

GST-DAPP1 = conditions: control; cited from earlier work

phosphoinositide binding [1]: did not bind
Compound: CCCCC/C=C\C/C=C\C/C=C\C/C=C\CCCC(=O)O[C@H](COC(=O)CCCCCCCCCCCCCCCCC)COP(=O)(O)O[C@H]1[C@H](O)[C@@H](OP(=O)(O)O)[C@H](OP(=O)(O)O)[C@@H](OP(=O)(O)O)[C@H]1O [sn-1-stearoyl-2-arachidonyl-D-PtdIns(3,4,5)P3]

Compound: phosphatidylethanolamine
lipid binding [2]: None of the PH domains whose lipid binding properties were investigated in FIG. 2, interacted

Compound: phospatidylinositol
lipid binding [2]: None of the PH domains whose lipid binding properties were investigated in FIG. 2, interacted

Kd [3]: 325 nM
Compound: CCCCCCCCCCCCCCCC(=O)OC[C@H](COP(=O)(O)O[C@@H]1[C@H](O)[C@H](OP(=O)(O)O)[C@@H](O)[C@H](O)[C@H]1O)OC(=O)CCCCCCCCCCCCCCC [PtdIns3P]

phosphoinositide binding [4]: only binds
Kd [5]: 20 nM
phosphoinositide binding [6]: binds specifically
phosphoinositide binding ([6]; listed as PtdIns-4P): specifically binds
Compound: CCCCCCCCCCCCCCCC(=O)OC[C@H](COP(=O)(O)O[C@H]1[C@H](O)[C@@H](O)[C@H](OP(=O)(O)O)[C@@H](O)[C@H]1O)OC(=O)CCCCCCCCCCCCCCC [PtdIns4P, phosphoinositol 4-monophosphate]

Compound: CCCCCCCCCCCCCCCC(=O)OC[C@H](COP(=O)(O)O[C@@H]1[C@H](O)[C@H](O)[C@@H](OP(=O)(O)O)[C@H](OP(=O)(O)O)[C@H]1O)OC(=O)CCCCCCCCCCCCCCC [PtdIns(4,5)P2, phosphatidylinositol 4,5-bisphosphate]
phosphoinositide binding [4]: does not interact
phosphoinositide binding [7]: binds only

Compound: phosphatidylcholine
lipid binding [2]: None of the PH domains whose lipid binding properties were investigated in FIG. 2, interacted

Compound: phosphatidylserine
lipid binding [2]: None of the PH domains whose lipid binding properties were investigated in FIG. 2, interacted

phosphoinositide binding [8]: moderate affinity
phosphoinositide binding [9]: did not bind
phosphoinositide binding [10]: did not bind
phosphoinositide binding [1]: did not bind
Compound: CCCCCCCCCCCCCCCC(=O)OC[C@H](COP(=O)(O)O[C@H]1[C@H](O)[C@@H](OP(=O)(O)O)[C@H](OP(=O)(O)O)[C@@H](OP(=O)(O)O)[C@H]1O)OC(=O)CCCCCCCCCCCCCCC [PtdIns(3,4,5)P3, phospatidylinositol (3,4,5)-trisphosphate]
phosphoinositide binding (GST-GRP1): binds only
phosphoinositide binding (GST-DAPP1): binds
